According to publication PMC7402526, “An in vitro quantitative systems pharmacology approach for deconvolving mechanisms of drug-induced, multilineage cytopenias” (PLoS Computational Biology, 2020):
Read-outs that look alike come from different tables or passages of the source.

Tests used:
Format in all cases: cell-based, human
[1] = tested on: hematopoietic stem cells (HSCs); test: Multi-lineage toxicity assay (MLTA), HSCs: concentration-response and QSP model fit; parameters: EmaxAP,HSC / EmaxT,HSC / Emax_drug_HSC: unitless, 0–2; ≤1 anti-proliferative, >1 adds cell killing
Experimental: (§1) A custom optimized cytokine cocktail was developed using commercially available cytokines (Peprotech, New Jersey) to facilitate simultaneous multi-lineage differentiation and self-renewal of freeze-thawed primary human bone marrow-derived CD34+ cells in SFEM II media (cells and media from StemCell Technologies, Vancouver). Cultures were carried out in ultra-low attachment 96-well plates (Corning, New York) with test article added on day 0 and cultured at 37°C, 85% relative humidity, and 5% CO2 for six days before interrogating drug impact via 17-parameter flow cytometry.
(§2) The flow cytometry panel used to define hematopoietic subsets was composed of CD34-PECy7, CD90-PECY5, CD38-AF488, CD371-PE, CD45Ra-BV421, CD14-BV605, CD42b-AF647, CD10-PEDazzle594, CD235a-PerCPCy5.5 (BioLegend, California), CD15-BUV395, CD41a-APCH7, CD71-BV786 (BD Biosciences, California), and DAPI for dead cell exclusion (ThermoFisher, California). In short, Day 6 cells were harvested, FcR-blocked (FcR binding inhibitor, ThermoFisher), surface-stained, then analyzed in a buffer containing TruCount Control Beads using a BD LSR Fortessa SORP fitted with a high-throughput sampler (BD Biosciences, California). Data was analyzed in Diva 6.0.2 and exported to CSV where after all cell data was transformed to cell per mL then normalized on a per-donor basis to untreated control wells to determine drug impact.
(§3) Donor material was collected and cultured as described above. The number of replicate donor samples per drug ranged from 2–7 and varied per drug (S1 Table). Drug treatment was added at time 0 and cells were maintained in culture for 6 days. Concentrations tested for each drug compound are contained in S1 Table. Concentrations were selected to span a range that is clinically useful. Following treatment, cell populations were measured using flow cytometry. We extracted cell counts from flow cytometry data, normalized to bead counts, and corrected for well volume.
(§4) Each well was normalized to the average of six vehicle control wells. For drugs that were tested across multiple runs of the assay, vehicle-normalized donor data were pooled, and we used the average of these pooled data for further modeling. Normalized data used as model inputs are included in S1 Table.
(§5) We implemented drug effects using an Emax model for the drug’s effect on each cell type. The 13 maximum effect parameters (EmaxT,C) are unitless and can vary between 0 and 2 and where a subscript, C, represents one of the previously described 13 cell types. We adapted a traditional Emax model using the equations below. We interpreted EmaxT values less than or equal to one as anti-proliferative, and EmaxT values greater than one as indicating a cell-killing mechanism in addition to anti-proliferation. The relationships for these effects are included in the model using the following equations. Eq 2 describes the drug anti-proliferative effect in the net proliferation rate for a given cell type. Eq 3 describes the cell-killing EmaxCK effect.
(§6) Towards the estimation of mechanistic parameters, we considered different formulations: (a) weighting the objective value to prioritize fitting dead cells and (b) using regularization methodology to encourage a parsimonious solution. We assessed the contributions of these formulations using mean-squared error and goodness of fit plots for drugs with known mechanisms. […] Further, we used L1 regularization to penalize parameters […] to help identify a parsimonious set of parameters to explain drug effects.

[2] = tested on: multi-potent progenitors (MPPs); test: MLTA, MPPs: concentration-response and QSP model fit
Experimental: as §1, §2, §3, §4, §5, §6

[3] = tested on: granulocyte-macrophage progenitor (GMPs); test: MLTA, GMPs: concentration-response and QSP model fit
Experimental: as §1, §2, §3, §4, §5, §6

[4] = tested on: granulocyte progenitor (Gran-lin prog); test: MLTA, GranP: concentration-response and QSP model fit; conditions: for EC50: read-out: EC50GranP
Experimental: as §1, §2, §3, §4, §5, §6

granulocytes (Gran-lin) = test: MLTA, Gran: concentration-response and QSP model fit
Experimental: as §1, §2, §3, §4, §5, §6

[5] = tested on: monocyte progenitors (monocyte prog); test: MLTA, MonoP: concentration-response and QSP model fit; conditions: for EC50: read-out: EC50MonoP
Experimental: as §1, §2, §3, §4, §5, §6

monocytes (monocyte-lin) = test: MLTA, Mono: concentration-response and QSP model fit
Experimental: as §1, §2, §3, §4, §5, §6

[6] = tested on: neutrophils (neutrophil-lin); test: MLTA, Neut: concentration-response and QSP model fit
Experimental: as §1, §2, §3, §4, §5, §6

[7] = tested on: early erythroid cells (Eryth I); test: MLTA, ErythI: concentration-response and QSP model fit; conditions: for EC50: read-out: EC50ErythroidI
Experimental: as §1, §2, §3, §4, §5, §6

[8] = tested on: late erythroid cells (Eryth II); test: MLTA, ErythII: concentration-response and QSP model fit; conditions: for EC50: read-out: EC50ErythroidII
Experimental: as §1, §2, §3, §4, §5, §6

MK cells (MK-lin) = test: MLTA, MK: concentration-response and QSP model fit
Experimental: as §1, §2, §3, §4, §5, §6

[9] = tested on: lymphocyte progenitors (LymP); test: MLTA, LymP: concentration-response and QSP model fit
Experimental: as §1, §2, §3, §4, §5, §6

B cells (B-lin) = test: MLTA, B-lin: concentration-response and QSP model fit
Experimental: as §1, §2, §3, §4, §5, §6

[10] = QSP model parameter, sheet EC50_parameters, HSCs
[11] = parameter from QSP model fitting
[12] = QSP model parameter, sheet EC50_parameters, MPPs
[13] = QSP model parameter, sheet EC50_parameters, GMPs
[14] = QSP model parameter, sheet EC50_parameters, GranP
[15] = QSP model parameter, sheet EC50_parameters, Gran
[16] = QSP model parameter, sheet EC50_parameters, MonoP
[17] = QSP model parameter, sheet EC50_parameters, Mono
[18] = QSP model parameter, sheet EC50_parameters, Neut
[19] = QSP model parameter, sheet EC50_parameters, Erythroid I
[20] = QSP model parameter, sheet EC50_parameters, Erythroid II
[21] = QSP model parameter, sheet EC50_parameters, MK
[22] = QSP model parameter, sheet EC50_parameters, LymP
[23] = QSP model parameter, sheet EC50_parameters, B

Which EC50 [1, 10] does the source give for `Cc1c(-c2ccc(N3CCc4cccc(C(=O)Nc5nc6ccccc6s5)c4C3)nc2C(=O)O)cnn1CC12CC3CC(CC(C3)C1)C2` [A_1331852] here?
Its EC50 is 1.96 µM.

What about the “EmaxT,HSC” value [1, 10] of the same molecule?
Its value is 0.0828.

And the Emax_drug_HSC [1, 11]?
The Emax_drug_HSC was 0.0828.

And the EC50 [2, 12]?
The EC50 was 1 µM.

And the “EmaxT,MPP” value [2, 12]?
The value was 2.15e-6.

What about the Emax_drug_MPP [2, 11] of the same molecule?
Its Emax_drug_MPP is 2.15e-6.

What about the EC50 [3, 13] of the same molecule?
Its EC50 is 0.911 µM.

And the “EmaxT,GMP” value [3, 13]?
The value was 1.14e-6.

And the Emax_drug_GMP [3, 11]?
Its Emax_drug_GMP is 1.14e-6.

What about the “EmaxT,GranP” value [4, 14] of the same molecule?
Its value is 1.71e-6.

What about the EC50 [4, 14] of the same molecule?
Its EC50 is 0.949 µM.

What about the Emax_drug_GranP [4, 11] of the same molecule?
The Emax_drug_GranP was 1.71e-6.

What about the EC50 (granulocytes (Gran-lin); [15]) of the same molecule?
Its EC50 is 0.000687 µM.

What about the “EmaxT,Gran” value (granulocytes (Gran-lin); [15]) of the same molecule?
The value was 2.2504.

And the Emax_drug_Gran (granulocytes (Gran-lin); [11])?
The Emax_drug_Gran was 2.2504.

What about the “EmaxT,MonoP” value [5, 16] of the same molecule?
Its value is 1.47e-5.

What about the EC50 [5, 16] of the same molecule?
Its EC50 is 0.182 µM.

What about the Emax_drug_MonoP [5, 11] of the same molecule?
Its Emax_drug_MonoP is 1.47e-5.

What about the EC50 (monocytes (monocyte-lin); [17]) of the same molecule?
The EC50 was 0.0155 µM.

And the “EmaxT,Mono” value (monocytes (monocyte-lin); [17])?
The value was 0.0610.

What about the Emax_drug_Mono (monocytes (monocyte-lin); [11]) of the same molecule?
The Emax_drug_Mono was 0.0610.

And the EC50 [6, 18]?
Its EC50 is 0.4 µM.

What about the “EmaxT,Neut” value [6, 18] of the same molecule?
Its value is 1.51e-7.

What about the Emax_drug_Neut [6, 11] of the same molecule?
The Emax_drug_Neut was 1.51e-7.

What about the “EmaxT,ErythroidI” value [7, 19] of the same molecule?
Its value is 2.5750.

And the EC50 [7, 19]?
The EC50 was 0.0323 µM.

And the Emax_drug_ErythroidI [7, 11]?
The Emax_drug_ErythroidI was 2.5750.

And the “EmaxT,ErythroidII” value [8, 20]?
The value was 1.51e-6.

And the EC50 [8, 20]?
The EC50 was 1.16 µM.

What about the Emax_drug_ErythroidII [8, 11] of the same molecule?
The Emax_drug_ErythroidII was 1.51e-6.

And the EC50 (MK cells (MK-lin); [21])?
Its EC50 is 0.0241 µM.

And the “EmaxT,MK” value (MK cells (MK-lin); [21])?
Its value is 0.1880.

And the Emax_drug_MK (MK cells (MK-lin); [11])?
The Emax_drug_MK was 0.1880.

And the EC50 [9, 22]?
The EC50 was 0.0212 µM.

What about the “EmaxT,LymP” value [9, 22] of the same molecule?
Its value is 1.6e-5.

What about the Emax_drug_LymP [9, 11] of the same molecule?
Its Emax_drug_LymP is 1.6e-5.

What about the EC50 (B cells (B-lin); [23]) of the same molecule?
The EC50 was 0.0131 µM.

And the “EmaxT,B” value (B cells (B-lin); [23])?
The value was 0.1187.

And the Emax_drug_B (B cells (B-lin); [11])?
The Emax_drug_B was 0.1187.

Which results are given for `Cc1sc2c(c1C)C(c1ccc(Cl)cc1)=N[C@@H](CC(=O)Nc1ccc(O)cc1)c1nnc(C)n1-2` [OTX015]?
Emax ([1]; Homo sapiens, Hematopoietic stem cell, 144 h, parameter from QSP model fitting, read-out: Emax_drug_HSC): 40.1%; EC50 ([1]; Homo sapiens, Hematopoietic stem cell, QSP model parameter, sheet EC50_parameters, HSCs): 0.241 µM; Emax ([2]; Homo sapiens, 144 h, parameter from QSP model fitting, read-out: Emax_drug_MPP): 0.05%; EC50 ([2]; Homo sapiens, QSP model parameter, sheet EC50_parameters, MPPs): 0.427 µM; EC50 ([3]; Homo sapiens, QSP model parameter, sheet EC50_parameters, GMPs): 0.851 µM; Emax ([4]; Homo sapiens, 144 h, parameter from QSP model fitting, read-out: Emax_drug_GranP): 0.16%; EC50 ([4]; Homo sapiens, QSP model parameter, sheet EC50_parameters, GranP): 0.176 µM; Emax (granulocytes (Gran-lin); Homo sapiens, 144 h, parameter from QSP model fitting, read-out: Emax_drug_Gran): 126%; EC50 (granulocytes (Gran-lin); Homo sapiens, QSP model parameter, sheet EC50_parameters, Gran): 0.364 µM; Emax ([5]; Homo sapiens, Monocyte, 144 h, parameter from QSP model fitting, read-out: Emax_drug_MonoP): 0.18%; EC50 ([5]; Homo sapiens, Monocyte, QSP model parameter, sheet EC50_parameters, MonoP): 0.114 µM; Emax (monocytes (monocyte-lin); Homo sapiens, Monocyte, 144 h, parameter from QSP model fitting, read-out: Emax_drug_Mono): 37.5%; EC50 (monocytes (monocyte-lin); Homo sapiens, Monocyte, QSP model parameter, sheet EC50_parameters, Mono): 0.264 µM; Emax ([6]; Homo sapiens, Neutrophil, 144 h, parameter from QSP model fitting, read-out: Emax_drug_Neut): 16.7%; EC50 ([6]; Homo sapiens, Neutrophil, QSP model parameter, sheet EC50_parameters, Neut): 0.0883 µM; Emax ([7]; Homo sapiens, 144 h, parameter from QSP model fitting, read-out: Emax_drug_ErythroidI): 195%; EC50 ([7]; Homo sapiens, QSP model parameter, sheet EC50_parameters, Erythroid I): 1.18 µM; Emax ([8]; Homo sapiens, 144 h, parameter from QSP model fitting, read-out: Emax_drug_ErythroidII): 12%; EC50 ([8]; Homo sapiens, QSP model parameter, sheet EC50_parameters, Erythroid II): 0.173 µM; Emax (MK cells (MK-lin); Homo sapiens, 144 h, parameter from QSP model fitting, read-out: Emax_drug_MK): 26.9%; EC50 (MK cells (MK-lin); Homo sapiens, QSP model parameter, sheet EC50_parameters, MK): 4.13 µM; Emax ([9]; Homo sapiens, Lymphocyte, 144 h, parameter from QSP model fitting, read-out: Emax_drug_LymP): 115%; EC50 ([9]; Homo sapiens, Lymphocyte, QSP model parameter, sheet EC50_parameters, LymP): 0.241 µM; Emax (B cells (B-lin); Homo sapiens, B-cell, 144 h, parameter from QSP model fitting, read-out: Emax_drug_B): 76.8%; EC50 (B cells (B-lin); Homo sapiens, B-cell, QSP model parameter, sheet EC50_parameters, B): 0.425 µM
